{
  "source": "paper PMC10201049",
  "about": "“Rhein-attenuates LPS-induced acute lung injury via targeting NFATc1/Trem2 axis” (Inflammation Research, 2023)",
  "target": "T1, NFATc1 (Mus musculus, UniProt O88942)",
  "T1 construct": "endogenous protein in RAW264.7 cell lysate",
  "T1 sequence (O88942 1-717)": "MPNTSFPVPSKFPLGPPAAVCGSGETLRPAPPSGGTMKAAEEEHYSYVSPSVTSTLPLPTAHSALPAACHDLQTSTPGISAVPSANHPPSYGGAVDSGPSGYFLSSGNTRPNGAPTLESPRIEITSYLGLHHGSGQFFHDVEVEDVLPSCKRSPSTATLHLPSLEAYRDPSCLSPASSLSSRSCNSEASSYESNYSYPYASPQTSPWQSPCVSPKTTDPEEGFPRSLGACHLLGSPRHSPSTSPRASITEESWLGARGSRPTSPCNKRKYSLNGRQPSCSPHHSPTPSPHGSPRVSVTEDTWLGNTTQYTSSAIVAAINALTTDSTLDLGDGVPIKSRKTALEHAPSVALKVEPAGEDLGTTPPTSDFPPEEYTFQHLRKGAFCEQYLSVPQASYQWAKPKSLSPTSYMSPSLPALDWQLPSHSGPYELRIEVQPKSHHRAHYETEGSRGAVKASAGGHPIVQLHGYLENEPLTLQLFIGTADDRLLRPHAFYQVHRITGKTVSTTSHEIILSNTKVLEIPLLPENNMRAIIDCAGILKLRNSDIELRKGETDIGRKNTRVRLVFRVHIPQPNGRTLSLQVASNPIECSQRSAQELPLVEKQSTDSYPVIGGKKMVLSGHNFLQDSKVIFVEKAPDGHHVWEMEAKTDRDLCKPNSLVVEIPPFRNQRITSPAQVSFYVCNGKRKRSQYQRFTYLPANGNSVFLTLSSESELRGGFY",
  "test": "biotin pull-down on streptavidin beads, western blot",
  "format": "biochemical",
  "conditions": "labelled compound (biotin conjugate of rhein, linker only drawn); biotin alone as control; RAW264.7 lysate, 4 °C bead loading",
  "data": [
    {"smiles": "O=C1N[C@H]2[C@H](CS[C@H]2CCCCC(=O)Oc2cccc3c2C(=O)c2c(O)cc(C(=O)O)cc2C3=O)N1", "note": "[Bio-Rhein, Biotinylated-Rhein]", "values": [
      {"measurement": "biotin pull-down on streptavidin beads, western blot", "result": "The results of western immunoblotting indicated the direct interaction between rhein and NFATc1"}
    ]}
  ]
}
